Data taken from patent publication US9376424B2, “Methods for treating post traumatic stress disorder” (AZEVAN PHARMACEUTICALS, INC., priority 2010, dated 2016).
Entries after “also recorded” stand apart in the source; their conditions may differ. Read-outs that look alike come from different tables or passages of the source.

Tests used:
human V1a receptor = biological target: T1, human V1a receptor (Homo sapiens, UniProt P37288); experiment: Human vasopressin V1a receptor binding assay (3H-AVP competition, hV1a cell line)
T1 construct: host or cells: CHO cells
T1 sequence (P37288 whole entry): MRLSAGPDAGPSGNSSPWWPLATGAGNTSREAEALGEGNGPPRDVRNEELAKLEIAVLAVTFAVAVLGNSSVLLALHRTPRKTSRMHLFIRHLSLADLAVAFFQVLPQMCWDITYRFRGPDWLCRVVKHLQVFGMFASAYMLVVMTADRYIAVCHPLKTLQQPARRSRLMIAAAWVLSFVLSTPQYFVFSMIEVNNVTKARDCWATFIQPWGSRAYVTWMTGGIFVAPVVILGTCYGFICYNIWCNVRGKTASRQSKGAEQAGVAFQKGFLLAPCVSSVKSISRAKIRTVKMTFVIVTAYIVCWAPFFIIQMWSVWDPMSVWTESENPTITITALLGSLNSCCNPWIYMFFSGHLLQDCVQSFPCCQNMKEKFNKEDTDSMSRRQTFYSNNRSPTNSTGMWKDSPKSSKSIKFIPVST
Experimental: Human vasopression V1a receptor binding assay. A cell line expressing the human V1a receptor in CHO cells (henceforth referred to as the hV1a cell line) was obtained from Dr. Michael Brownstein, NIMH, Bethesda, Md., USA. The hV1a cDNA sequence is described by Thibonnier et al., Journal of Biological Chemistry, 269, 3304-3310 (1994), and the expression method was the same as described by Morel et al. (1992). The hV1a cell line was grown in alpha-MEM with 10% fetal bovine serum and 250 ug/ml G418 (Gibco, Grand Island, N.Y., USA). For competitive binding assay, hV1a cells were plated into 6-well culture plate at 1:10 dilution from a confluency flask, and maintained in culture for at least two days. Culture medium was then removed, cells were washed with 2 ml binding buffer (25 mM Hepes, 0.25% BSA, 1×DMEM, PH=7.0). To each well, 990 μl binding buffer containing 1 nM 3H-AVP was added, and followed by 10 μl series diluted Example compounds dissolved in DMSO. […] 100 nM cold AVP (Sigma) was used to assess non-specific binding. Cells were incubated for 45 minutes at 37° C., assay mixture was removed and each well was washed three times with PBS (pH=7.4). 1 ml 2% SDS was added per well and plates were let sit for 30 minutes. The whole content in a well was transferred to a scintillation vial. Each well was rinsed with 0.5 ml PBS which was then added to the corresponding vial. Scintillation fluid (Ecoscint, National Diagnostics, Atlanta, Ga.) was then added at 3 ml per vial. Samples were counted in a liquid scintillation counter (Beckman LS3801). IC50 values were calculated by Prism Curve fitting software.
All of the alkanedioic esters and amides exemplified in the foregoing examples dissolved in DMSO were tested in this assay. Binding curves were generated according to methods described by Thibonnier et al. (1994). [^3H]-AVP was added to the hV1a cell cultures followed by 10-fold dilutions of each test compound.

V2 = V2 (Homo sapiens, UniProt P30518); experiment: V2 receptor inhibition data (Ki); format: binding; details: selectivity table
Sequence of V2 (P30518 whole entry): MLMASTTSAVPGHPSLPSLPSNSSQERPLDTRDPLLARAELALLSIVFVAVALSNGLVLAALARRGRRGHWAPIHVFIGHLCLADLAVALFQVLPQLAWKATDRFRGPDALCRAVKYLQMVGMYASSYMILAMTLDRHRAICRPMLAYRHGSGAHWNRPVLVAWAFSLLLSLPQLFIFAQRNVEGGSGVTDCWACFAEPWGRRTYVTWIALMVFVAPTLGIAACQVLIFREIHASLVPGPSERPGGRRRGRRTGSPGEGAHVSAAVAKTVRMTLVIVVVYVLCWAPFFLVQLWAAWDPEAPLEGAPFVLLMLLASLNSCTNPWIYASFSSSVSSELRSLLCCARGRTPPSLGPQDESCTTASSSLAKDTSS

resident male rats = experiment: Resident-Intruder Model of Stress and Aggression in Rats (neuroimaging); format: in vivo, rat
From the text: Resident-Intruder Model of Stress and Aggression in Rats. Neuroimaging is used to assess the blockade of stress/arousal with test compound compared to control. The effect of AVN251-HCl on functional circuitry was examined using the imaging method for awake rats. Additional details of the assay are described in Ferris et al. (2008).
Male rats in the company of a female cage mate will piloerect in the presence of a male intruder. This piloerection is a sign of stress and aggressive intent and is associated with activation of stress/arousal circuits in the brain. […] Resident male rats from six male:female pairs were imaged while fully awake. During a single imaging session, these males were treated with vehicle or AVN251-HCl (5 mg/kg).
The total volume of brain activation for resident males confronted with their mate alone, mate plus intruder, and mate plus intruder in the presence of AVN251-HCl can be viewed as 3D models. While there appears to be a general decrease in BOLD signal in major regions with AVN251-HCl treatment, sexual motivation, as assessed by the presentation of a novel receptive female, was unaffected by V1a receptor blockade.
Stress circuit activation in response to an intruder male is assessed by obtaining brain scans viewed from a caudal/dorsal perspective as translucent shells. The localization of activated voxels is mapped as 3D volumes of activation, which are composed of 10 subjects each. Once fully registered and segmented, the statistical responses for each subject are averaged on a voxel-by-voxel basis. Those averaged voxels exceeding a 2.0% threshold are shown in their appropriate spatial location. Functional images are acquired on awake rats at 4.7 T.
The 3D volumes of activation are composed from results obtained with 10 subjects in each condition. […] Particular olfactory systems measured included the anterior olfactory nucleus, olfactory tubercle, piriform cortex, n. laterial olfactory tract, and entrorhinal cortex. Particular dopaminergic systems measured included the prelimbic cortex, accumbens, ventral pallidum, medial dorsal thalamus, and ventral tegmentum.
Awake rats were imaged when presented with their mate+an intruder, a highly stressful stimulus.

[1] = test system: adult male Long Evans rats; experiment: Light:Dark Shuttle Box; format: in vivo, rat
Experimental: Anxiolytic Effect in the Light:Dark Shuttle Box. The light:dark shuttle box is a standard and well characterized assay for anxiolytic effects of a test compound. Rats naturally avoid the light side of the box because it is stressful. Increased time on the light side by the treatment group compared to control reflects an anxiolytic effect (Bourin and Hascoet, 2003). Adult male Long Evans rats were administered AVN251 (0.1-2 mg/kg) by oral gavage 90 min prior to testing in a light: dark shuttle box.

CN(Cc1cccc(C(F)(F)F)c1)C(=O)[C@@H](CC(=O)N1CCC(N2CCCCC2)CC1)N1C(=O)[C@@H](N2C(=O)OC[C@@H]2c2ccccc2)[C@H]1C=Cc1ccccc1 [Example 225, 2(R)-[[4-(Piperidinyl)piperidinyl]carbonylmethyl]-2-[3(S)-(4(S)-phenyloxazolidin-2-on-3-yl)-4(R)-(2-styryl)azetidin-2-on-1-yl]acetic acid N-methyl-N-(3-trifluoromethylbenzyl)amide]
IC50 (human V1a receptor; CHO cells expressing human V1a, 1 nM 3H-AVP, read-out: V1a Binding Affinity IC50): 1.08 nM | Ki (human V1a receptor; CHO cells expressing human V1a, 1 nM 3H-AVP, read-out: V1a Ki): 0.66 nM | IC50 (human V1a receptor; read-out: IC50, dose-dependent competitive binding curve, hV1a cell line, [3H]-AVP): 1.86 to 2.13 nM | Ki (human V1a receptor; read-out: Ki, dose-dependent competitive binding curve, hV1a cell line, [3H]-AVP): 1.14 to 1.3 nM | Ki (human V1a receptor; selectivity table, read-out: inhibition data (Ki, nM), Receptor V1a): 0.66 nM | Ki (V2): > 1000 nM | sexual motivation (reward circuit activation by novel receptive female) (resident male rats; awake resident male rats, 5 mg/kg, listed as AVN251, 5 mg/kg): activates reward circuitry; also recorded: remained intact | activation of stress/arousal circuit in response to male intruder (BOLD imaging) (resident male rats; awake resident male rats, mate plus intruder, 5 mg/kg): blocked the stress/arousal response | stress and aggressive motivation compared to controls (resident male rats; oral administration, intruder stimulus): blocked stress and aggressive motivation | anxiety vs. vehicle ([1]; 0.1-2 mg/kg oral gavage 90 min prior to testing): dose dependent decrease in anxiety | light-dark entries (FIG. 2C) ([1]; 1 or 2 mg/kg oral gavage): more light-dark entries | time in the dark (FIG. 2B) ([1]; 1 or 2 mg/kg oral gavage): less time in the dark | time in the light (FIG. 2A) ([1]; 1 or 2 mg/kg oral gavage): significantly more time in the light
